Laboratory results reported in PubChem BioAssay (NCI).
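Protocol summary: plate cells (96-well), add compound at 5 concentrations, incubate 48 h, interpolate endpoints linearly. TGI: concentration producing complete growth inhibition.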

Key:
Assay in all cases: NCI tumour cell line growth inhibition, 48 h
KM12 colon = system: KM12 colon
M14 melanoma = system: M14 melanoma
SK-MEL-2 melanoma = system: SK-MEL-2 melanoma
A549 NSCLC = system: A549 NSCLC
MDA-N = system: MDA-N
OVCAR-8 ovarian = system: OVCAR-8 ovarian
RXF 393 renal = system: RXF 393 renal
SK-OV-3 ovarian = system: SK-OV-3 ovarian
HCC-2998 colon = system: HCC-2998 colon
SR leukemia = system: SR leukemia
NCI-H23 lung = system: NCI-H23 lung

SMILES | TGI (KM12 colon) [µM] | TGI (M14 melanoma) [µM] | TGI (SK-MEL-2 melanoma) [µM] | TGI (A549 NSCLC) [µM] | TGI (MDA-N) [µM] | TGI (OVCAR-8 ovarian) [µM] | TGI (RXF 393 renal) [µM] | TGI (SK-OV-3 ovarian) [µM] | TGI (HCC-2998 colon) [µM] | TGI (SR leukemia) [µM] | TGI (NCI-H23 lung) [µM]
CC(C)C1(C)N=C(C(F)(F)F)c2cc(C(=O)C(F)(F)F)c3ccccc3c2N1 (stereo unspecified) | 12.7 | 18.2 | 6.99 | 23.5 | 13 | 17.6 | 10.1 | 30.2 | 11.9 | > 100 | 8.12
CCCCCCOc1ccc(C(=O)NOCc2ccccc2)cc1 | > 100 | > 100 | > 100 | > 100 | > 100 | > 100 | > 100 | > 100 | > 100 | 67.4 | > 100
N#CCCN(CCC#N)c1ccc(C(N=Nc2ccccc2)=Nc2ccccc2)cc1 | > 100 | > 100 | > 100 | > 100 | > 100 | > 100 | > 100 | > 100 | > 100 | > 100 | > 100
CCc1n[nH]c(=O)n1/N=C/c1ccccc1Cl | > 100 | > 100 | > 100 | > 100 | > 100 | > 100 | > 100 | > 100 | > 100 | > 100 | > 100
O=C1/C(=C\c2cccc(Oc3ccccc3)c2)S(=O)(=O)C(c2ccccc2)N1c1ccc(Cl)cc1 (stereo unspecified) | > 100 | 26.9 | 34.5 | > 100 | 29 | 37.3 | 29.4 | > 100 | > 100 | 40 | > 100
CC1(C)N=C(C(N)=O)c2ncn(-c3ccccc3)c2N1 | > 100 | > 100 | > 100 | > 100 | > 100 | > 100 | > 100 | > 100 | > 100 | > 100 | > 100
